Data set [1] deals with T1, recombinant Δ4, 5 glycuronidase (Δ4,5^Δ20) (Pedobacter heparinus, UniProt C6Y1N7).
T1 sequence (C6Y1N7 21-402): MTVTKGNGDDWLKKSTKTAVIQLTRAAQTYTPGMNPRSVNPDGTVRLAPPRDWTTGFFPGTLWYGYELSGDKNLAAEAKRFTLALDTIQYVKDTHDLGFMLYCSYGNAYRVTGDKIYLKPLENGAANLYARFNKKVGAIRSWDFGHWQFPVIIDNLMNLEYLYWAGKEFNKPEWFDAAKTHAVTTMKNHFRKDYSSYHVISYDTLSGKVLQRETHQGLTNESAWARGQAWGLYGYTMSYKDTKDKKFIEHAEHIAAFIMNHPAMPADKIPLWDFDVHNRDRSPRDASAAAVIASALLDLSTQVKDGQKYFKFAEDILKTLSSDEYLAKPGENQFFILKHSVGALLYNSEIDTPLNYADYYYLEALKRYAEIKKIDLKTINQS
The experiment in a line: Kinetic parameters of Δ4, 5 glycuronidase for disaccharide substrates (loss of absorbance at 232 nm, Michaelis-Menten fit). Type of data set: biochemical, F. heparinum. The note with it: conditions for measuring substrate kinetics. As for the experimental part:
Assay for enzyme activity and determination of kinetic parameters. Standard reactions were carried out at 30° C. and included 100 mM sodium phosphate buffer, pH 6.4, 50 mM NaCl, 500 μM disaccharide substrate and 200 nM enzyme in a 100 μl reaction volume. Hydrolysis of heparin disaccharides was determined spectrophotometrically by measuring the loss of the Δ4, 5 chromophore measured at 232 nm Substrate hydrolysis was calculated using the following molar extinction coefficients empirically determined for each disaccharide substrate: ΔUHNAc, ε232=4,524; ΔUHNAc6S, ε232=4,300; ΔUHNS, ε232=6,600; ΔUHNS,6S, ε232=6,075; ΔUHNH26S, ε232=4,826; ΔU2SHNS, ε232=4,433. Initial rates (Vo) were extrapolated from linear activities representing <10% substrate turnover and fit to pseudo first-order kinetics. For kinetic experiments, disaccharide concentration for each respective substrate was varied from 48 to 400 μM concentrations. Km and kcat values were extrapolated from Vo vs. [S] curves fit to the Michaelis Menten equation by a non-linear, least squares regression.
The specificity of the Δ4, 5 glycuronidase acting on various glycosaminoglycan disaccharide substrates was investigated. The various substrates examined included both heparin and chondroitin disaccharides as well as an hyaluronadate. In particular, we considered the possibility of any structural discriminations pertaining to glycosidic linkage position (1→4 vs. 1→3) and relative sulfation state within the disaccharide. For each substrate, kinetic parameters were determined based on substrate saturation profiles that fit Michaelis-Menten assumptions (FIG. 8).

Data set [2] concerns Δ4, 5 glycuronidase. The experiment in a line: Detection of Δ4, 5 glycuronidase activity by capillary electrophoresis on heparinase-digested heparin. Type of data set: biochemical, F. heparinum. As for the experimental part:
Detection of Δ4, 5 glycuronidase activity by capillary electrophoresis. 200 μg of heparin (Celsus Laboratories) was subject to exhaustive heparinase digestion as described [Venkataraman, G., Shriver, Z., Raman, R., and Sasisekharan, R., 1999, Science 286, 537-42] with certain modifications that included a 50 mM PIPES buffer, pH 6.5 with 100 mM NaCl in a 100 μl reaction volume. Following heparinase treatment, 25 picomoles of Δ4, 5 glycuronidase was added to one-half of the original reaction (pre-equilibrated at 30° C.). 20 μl aliquots were removed at 1 minute and 30 minutes and activity quenched by heating at 95° C. for 10 minutes. 20 μl of the minus Δ4, 5 control (also heated for 10 minutes) was used as the 0 time point. Disaccharide products were resolved by capillary electrophoresis run for 25 minutes under positive polarity mode as previously described [Rhomberg, A. J., Ernst, S., Sasisekharan, R., and Biemann, K., 1998, Proc Natl Acad Sci USA 95, 4176-81].
In this manner, the Δ4, 5 should be very useful in assessing the composition of disaccharides resulting from prior heparinase treatment of heparin/heparan sulfate. For this particular experiment, we pre-treated 200 μg of heparin with a heparinase cocktail. This exhaustive digestion was then directly followed by a relatively short (1 minute) or long (30 minute) Δ4, 5 glycuronidase treatment carried out under optimal reaction conditions. The disaccharide products were then resolved by capillary electrophoresis. The electrophoretic mobility profile for the Δ4, 5 treated saccharides were then directly compared to the untreated control (i.e., heparinase treatment only) run under identical conditions (FIG. 9). 7 disaccharide peaks were present in the capillary electrophoretogram corresponding to the heparinase only control (A.). A structural assignment for each one of these peaks was made based on previously established compositional analyses. […] Predictably, the relative amplitude and area of these peaks remained the same, over the entire timecourse of the Δ4, 5 preincubation. This unchanging result extended to 18 hours. On the other hand, peaks corresponding to disaccharides lacking the 2-O sulfate were eliminated.

The subject of data set [3] is Δ4, 5 glycuronidase. The experiment in a line: Extended timecourse hydrolysis of non-heparin disaccharides. Type of data set: biochemical, F. heparinum. The note with it: after approximately 18 hours, considerably higher enzyme concentrations. As to the method: None of the non-heparin disaccharides were hydrolyzed under the conditions for measuring substrate kinetics. […] At the same time, these disaccharides were slowly hydrolyzed to varying degrees when the enzyme reactions were conducted over a much longer timecourse (>12 hours) and at considerably higher enzyme concentrations. After approximately 18 hours, greater than 80% of monosulfated chondroitin disaccharide (ΔUGalNac6S) was hydrolyzed, whereas the non-sulfated chondroitin (ΔUGalNAc) and the hyaluronan disaccharide (ΔUH) were still present at approximately 40% and 65%, respectively. The importance of the linkage position is, therefore, not absolute. The apparently positive effect of chondroitin 6-O-sulfation within the galactosamine is consistent with our results for the heparin substrates and provides further evidence for the influence of this position in dictating substrate specificity.

A short description of data set [4]: Pilot expression of the full-length enzyme in E. coli: solubility and activity. An excerpt: Using PCR, we cloned from the F. heparinum genome both the full-length enzyme and the “mature” enzyme lacking the N-terminal 20 amino acid signal sequence (Δ4,5^Δ20) into a T7-based expression plasmid. Cloning into pET28a permitted the expression of the glycuronidase as an N-terminal 6× His-tag fusion protein. Pilot expression studies focused on the full-length enzyme. In these initial experiments, we examined several different induction conditions such as temperature, time and length of induction, and even IPTG concentrations.

Here are results for ten molecules from patent publication US7951560B2, “Delta 4,5 glycuronidase compositions and methods related thereto” (Massachusetts Institute of Technology, priority 2002, dated 2011).

For `O=C(O)C1=C[C@H](O)[C@@H](O)[C@H](O[C@H]2[C@H](O)[C@@H](NS(=O)(=O)O)C(O)O[C@@H]2COS(=O)(=O)O)O1` (stereo partly shown) [ΔUHNS, 6S], the “substrate status / substrate preference” value in data set [1] is listed as “roughly in the middle”. In the data set with Δ4, 5 glycuronidase [2], the “hydrolysis by 30 minutes Δ4, 5 treatment” value was “completely depleted” and the “hydrolyzed after 1 minute Δ4, 5 treatment” value is “approximately 75%”.
Consider `O=C(O)C1=C[C@H](O)[C@@H](O)[C@H](O[C@H]2[C@H](O)[C@@H](NS(=O)(=O)O)C(O)O[C@@H]2CO)O1` (stereo partly shown) [ΔUHNS], for which, in data set [1], the “substrate status / substrate preference” value is “less good as substrates”. Besides, in the data set on Δ4, 5 glycuronidase [2], the “hydrolysis by 30 minutes Δ4, 5 treatment” value was “completely depleted” and the “hydrolyzed after 1 minute Δ4, 5 treatment” value was around 50%.
As to `N[C@H]1C(O)O[C@H](COS(=O)(=O)O)[C@@H](O[C@@H]2OC(C(=O)O)=C[C@H](O)[C@H]2O)[C@@H]1O` (stereo partly shown) [ΔUHNH2, 6S], the “substrate status / substrate preference” value in data set [1] was “less good as substrates”.
Same read-out and setting: then `CC(=O)N[C@H]1C(O)O[C@H](CO)[C@@H](O[C@@H]2OC(C(=O)O)=C[C@H](O)[C@H]2O)[C@@H]1O` (stereo partly shown) [ΔUHNac], with “best substrates”.
Regarding `O=C(O)C1=C[C@H](O)[C@@H](OS(=O)(=O)O)[C@H](O[C@H]2[C@H](O)[C@@H](NS(=O)(=O)O)[C@@H](O)O[C@@H]2CO)O1` [ΔU2SHNS], in data set [1], the “substrate status / substrate preference” value is listed as “not a substrate”.
As to `CC(=O)NC1C(O)OC(CO)C(O)C1OC1OC(C(=O)O)=CC(O)C1O` (stereo not shown) [ΔUH], the disaccharide still present in the data set with Δ4, 5 glycuronidase [3] is listed as around 65%.
In the case of `CC(=O)N[C@H]1C(O)O[C@H](COS(=O)(=O)[O-])[C@H](O)[C@@H]1OC1OC(C(=O)[O-])=C[C@H](O)[C@H]1O.[Na+].[Na+]` (stereo partly shown) [ΔUGalNac6S], the disaccharide hydrolyzed result with Δ4, 5 glycuronidase [3] is reported as “greater than 80%”.
Consider `CC(=O)NC1C(O)OC(CO)C(O)C1OC1OC(C(=O)O)=CC(O)C1O` (stereo not shown) [ΔUGalNAc], for which the disaccharide still present result in the data set on Δ4, 5 glycuronidase [3] is “approximately 40%”.
In the case of `CC(=O)N[C@H]1C(O)O[C@H](COS(=O)(=O)O)[C@@H](O[C@@H]2OC(C(=O)O)=C[C@H](O)[C@H]2O)[C@@H]1O` (stereo partly shown) [ΔUHNAc, 6S], in data set [1], the “substrate status / substrate preference” value is “best substrates”. In addition, the “hydrolysis after one minute Δ4, 5 treatment (in words)” value with Δ4, 5 glycuronidase [2] is on record as “essentially hydrolyzed”.

B1: full-length enzyme: full-length 402 amino acid Δ4, 5 glycuronidase, SEQ ID NO:3, expressed as N-terminal 6× His-tag fusion (protein, listed as Flavobacterium heparinum)
chain: MKSLLSAFVATIALIGSANGMTVTKGNGDDWLKKSTKTAVIQLTRAAQTYTPGMNPRSVNPDGTVRLAPPRDWTTGFFPGTLWYGYELSGDKNLAAEAKRFTLALDTIQYVKDTHDLGFMLYCSYGNAYRVTGDKIYLKPLENGAANLYARFNKKVGAIRSWDFGHWQFPVIIDNLMNLEYLYWAGKEFNKPEWFDAAKTHAVTTMKNHFRKDYSSYHVISYDTLSGKVLQRETHQGLTNESAWARGQAWGLYGYTMSYKDTKDKKFIEHAEHIAAFIMNHPAMPADKIPLWDFDVHNRDRSPRDASAAAVIASALLDLSTQVKDGQKYFKFAEDILKTLSSDEYLAKPGENQFFILKHSVGALLYNSEIDTPLNYADYYYLEALKRYAEIKKIDLKTINQS
modifications: N-terminal 6xHis tag
As to B1, the “solubility on recombinant expression” value in data set [4] (N-terminal 6× His-tag fusion, all induction conditions examined) is “nearly exclusively as an insoluble fraction”. The “activity of partially purified, solubilised enzyme” value in data set [4] (solubilised with detergents (e.g., CHAPS), salt, glycerol) was “largely inactive”.
